Measured values published in ChEMBL document CHEMBL1201862, “PubChem BioAssay data set” (2004).
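Interpolation was linear, between the two tested concentrations surrounding the appropriate level; five concentrations were tested over 48 hours in 96-well plates. Here, GI50 denotes the concentration required for 50% inhibition of growth.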 Active and inactive are the calls of the source. No stated cut-off is given here; in the data, active = GI50 up to about 1.1 µM and inactive = higher.

Tests used:
Assay in all cases: NCI anticancer screen, dose series, 48 h
[1] = system: A549
[2] = system: 786-0
[3] = system: XF498
[4] = system: SF-295
[5] = system: SW-620
[6] = system: SNB-78
[7] = system: NCI-H23
[8] = system: TK-10
[9] = system: OVCAR-4
[10] = system: RPMI-8226
[11] = system: SNB-75
[12] = system: HCT-15
[13] = system: SK-MEL-2
[14] = system: SF-268
[15] = system: LOX IMVI
[16] = system: HCC 2998
[17] = system: DLD-1
[18] = system: OVCAR-5
[19] = system: HCT-116
[20] = system: ACHN
[21] = system: M19-MEL
[22] = system: DMS-114
[23] = system: NCI-H460
[24] = system: OVCAR-8
[25] = system: MOLT-4
[26] = system: A498
[27] = system: HL-60
[28] = system: SK-MEL-28
[29] = system: NCI-H226
[30] = system: K562
[31] = system: RXF 393
[32] = system: HOP-92
[33] = system: UACC-257
[34] = system: UO-31
[35] = system: SR
[36] = system: HT-29
[37] = system: CAKI-1
[38] = system: SN12C
[39] = system: RXF 631
[40] = system: LXFL 529
[41] = system: Malme-3M
[42] = system: DMS-273
[43] = system: U-251
[44] = system: IGROV-1
[45] = system: OVCAR-3
[46] = system: SF-539
[47] = system: CCRF-CEM
[48] = system: KM-20L2
[49] = system: M14
[50] = system: UACC-62
[51] = system: SK-MEL-5
[52] = system: EKVX
[53] = system: SNB-19
[54] = system: KM12
[55] = system: NCI-H522
[56] = system: SK-OV-3
[57] = system: COLO 205
[58] = system: HOP-62
[59] = system: HOP-18

Q: `Cc1ccc(C)c(NC(=O)CC2C(=O)Nc3ccccc3S2(=O)=O)c1` (centres undefined) was tested. Which GI50 [1] did it give?
A: > 100 µM (inactive)

Q: What about the GI50 [2] of the same compound?
A: 22.8 µM (inactive)

Q: What about the GI50 [3] of the same compound?
A: 27.8 µM (inactive)

Q: And the GI50 [4]?
A: > 100 µM (inactive)

Q: And the GI50 [5]?
A: 36.6 µM (inactive)

Q: What about the GI50 [6] of the same compound?
A: 68.4 µM (inactive)

Q: And the GI50 [7]?
A: 61.1 µM (inactive)

Q: And the GI50 [8]?
A: > 100 µM (inactive)

Q: What about the GI50 [9] of the same compound?
A: 19 µM (inactive)

Q: What about the GI50 [10] of the same compound?
A: 36.6 µM (inactive)

Q: What about the GI50 [11] of the same compound?
A: 21.5 µM (inactive)

Q: What about the GI50 [12] of the same compound?
A: 87.9 µM

Q: And the GI50 [13]?
A: > 100 µM (inactive)

Q: And the GI50 [14]?
A: 42.7 µM (inactive)

Q: What about the GI50 [15] of the same compound?
A: 51.3 µM (inactive)

Q: What about the GI50 [16] of the same compound?
A: 77.8 µM (inactive)

Q: What about the GI50 [17] of the same compound?
A: > 100 µM (inactive)

Q: What about the GI50 [18] of the same compound?
A: > 100 µM (inactive)

Q: And the GI50 [19]?
A: 52.2 µM (inactive)

Q: What about the GI50 [20] of the same compound?
A: 48.2 µM (inactive)

Q: And the GI50 [21]?
A: 63 µM (inactive)

Q: What about the GI50 [22] of the same compound?
A: 45.4 µM (inactive)

Q: What about the GI50 [23] of the same compound?
A: > 100 µM (inactive)

Q: What about the GI50 [24] of the same compound?
A: 37.2 µM (inactive)

Q: What about the GI50 [25] of the same compound?
A: > 100 µM (inactive)

Q: What about the GI50 [26] of the same compound?
A: 30.2 µM (inactive)

Q: What about the GI50 [27] of the same compound?
A: 49.9 µM (inactive)

Q: What about the GI50 [28] of the same compound?
A: 72.9 µM (inactive)

Q: And the GI50 [29]?
A: 36.8 µM (inactive)

Q: What about the GI50 [30] of the same compound?
A: 53.1 µM (inactive)

Q: What about the GI50 [31] of the same compound?
A: 27.9 µM (inactive)

Q: What about the GI50 [32] of the same compound?
A: 38.8 µM (inactive)

Q: What about the GI50 [33] of the same compound?
A: > 100 µM (inactive)

Q: And the GI50 [34]?
A: 49.7 µM (inactive)

Q: What about the GI50 [35] of the same compound?
A: 61 µM (inactive)

Q: And the GI50 [36]?
A: > 100 µM (inactive)

Q: What about the GI50 [37] of the same compound?
A: 31.8 µM (inactive)

Q: And the GI50 [38]?
A: > 100 µM (inactive)

Q: What about the GI50 [39] of the same compound?
A: > 100 µM (inactive)

Q: What about the GI50 [40] of the same compound?
A: > 100 µM (inactive)

Q: And the GI50 [41]?
A: 31.5 µM (inactive)

Q: And the GI50 [42]?
A: 28.1 µM (inactive)

Q: And the GI50 [43]?
A: 43.3 µM (inactive)

Q: And the GI50 [44]?
A: 52.8 µM (inactive)

Q: What about the GI50 [45] of the same compound?
A: 42 µM (inactive)

Q: And the GI50 [46]?
A: 25.5 µM (inactive)

Q: What about the GI50 [47] of the same compound?
A: > 100 µM (inactive)

Q: What about the GI50 [48] of the same compound?
A: > 100 µM (inactive)

Q: What about the GI50 [49] of the same compound?
A: 44.5 µM (inactive)

Q: And the GI50 [50]?
A: 46.2 µM (inactive)

Q: And the GI50 [51]?
A: 27.7 µM (inactive)

Q: And the GI50 [52]?
A: 31.2 µM (inactive)

Q: What about the GI50 [53] of the same compound?
A: 75 µM (inactive)

Q: Which GI50 [1] does the source give for `COc1ccc2[nH]c3c(C)c4c(c(C)c3c2c1)CN(C)CC4` here?
A: 17.7 µM (inactive)

Q: What about the GI50 [2] of the same compound?
A: 14.6 µM (inactive)

Q: And the GI50 [4]?
A: 18.8 µM (inactive)

Q: What about the GI50 [5] of the same compound?
A: 4.21 µM (inactive)

Q: What about the GI50 [6] of the same compound?
A: 25.3 µM (inactive)

Q: And the GI50 [8]?
A: 23.4 µM (inactive)

Q: And the GI50 [9]?
A: 19 µM (inactive)

Q: What about the GI50 [10] of the same compound?
A: 4.69 µM (inactive)

Q: What about the GI50 [54] of the same compound?
A: 13.9 µM (inactive)

Q: What about the GI50 [11] of the same compound?
A: 18 µM (inactive)

Q: And the GI50 [12]?
A: 16.1 µM

Q: What about the GI50 [13] of the same compound?
A: 17.2 µM (inactive)

Q: And the GI50 [14]?
A: 18.9 µM (inactive)

Q: And the GI50 [15]?
A: 13.7 µM (inactive)

Q: And the GI50 [16]?
A: 16.9 µM (inactive)

Q: And the GI50 [17]?
A: 22.6 µM (inactive)

Q: And the GI50 [18]?
A: 23.7 µM (inactive)

Q: What about the GI50 [19] of the same compound?
A: 3.17 µM (inactive)

Q: What about the GI50 [55] of the same compound?
A: 18 µM (inactive)

Q: What about the GI50 [56] of the same compound?
A: 16.3 µM (inactive)

Q: And the GI50 [20]?
A: 18.8 µM (inactive)

Q: And the GI50 [21]?
A: 17.3 µM (inactive)

Q: What about the GI50 [22] of the same compound?
A: 18.6 µM (inactive)

Q: And the GI50 [23]?
A: 11.6 µM (inactive)

Q: And the GI50 [24]?
A: 11.9 µM (inactive)

Q: What about the GI50 [25] of the same compound?
A: 18.5 µM (inactive)

Q: And the GI50 [26]?
A: 17.9 µM (inactive)

Q: What about the GI50 [27] of the same compound?
A: 2.09 µM (inactive)

Q: And the GI50 [28]?
A: 14.2 µM (inactive)

Q: What about the GI50 [29] of the same compound?
A: 15.8 µM (inactive)

Q: And the GI50 [30]?
A: 4.59 µM (inactive)

Q: And the GI50 [31]?
A: 19.3 µM (inactive)

Q: What about the GI50 [32] of the same compound?
A: 16.9 µM (inactive)

Q: And the GI50 [33]?
A: 17.7 µM (inactive)

Q: And the GI50 [34]?
A: 16.4 µM (inactive)

Q: What about the GI50 [35] of the same compound?
A: 23.4 µM (inactive)

Q: What about the GI50 [36] of the same compound?
A: 6.47 µM (inactive)

Q: And the GI50 [37]?
A: 18.5 µM (inactive)

Q: And the GI50 [38]?
A: 16.3 µM (inactive)

Q: And the GI50 [57]?
A: 17.4 µM (inactive)

Q: What about the GI50 [39] of the same compound?
A: 21.7 µM (inactive)

Q: What about the GI50 [40] of the same compound?
A: 17 µM (inactive)

Q: What about the GI50 [41] of the same compound?
A: 19.8 µM (inactive)

Q: What about the GI50 [42] of the same compound?
A: 13 µM (inactive)

Q: What about the GI50 [43] of the same compound?
A: 17.7 µM (inactive)

Q: What about the GI50 [58] of the same compound?
A: 17.3 µM (inactive)

Q: And the GI50 [44]?
A: 16.6 µM (inactive)

Q: What about the GI50 [45] of the same compound?
A: 16 µM (inactive)

Q: What about the GI50 [46] of the same compound?
A: 16 µM (inactive)

Q: What about the GI50 [47] of the same compound?
A: 3.22 µM (inactive)

Q: And the GI50 [48]?
A: 17 µM (inactive)

Q: And the GI50 [49]?
A: 16.3 µM (inactive)

Q: What about the GI50 [50] of the same compound?
A: 19.2 µM (inactive)

Q: And the GI50 [51]?
A: 17.5 µM (inactive)

Q: What about the GI50 [59] of the same compound?
A: 10.6 µM (inactive)

Q: What about the GI50 [53] of the same compound?
A: 17.3 µM (inactive)
